Results published in PMC6278664, “Highly Cancer Selective Antiproliferative Activity of Natural Prenylated Flavonoids” (Molecules, 2018).

Legend:
[1] = system: A2780 human ovarian cancer cell line; assay: SRB antiproliferative assay, A2780; format: cell-based
Protocol: (§1) We determined the effect of various structural factors in the substrates on the antiproliferative activity against those selected to the study cell lines: the location and/or the presence of the prenyl group, the chalcone/flavanone skeleton and the presence of an O-methyl group at C-5 in flavanones. Flavonoids presented in Figure 1 were tested for the antiproliferative activity towards eight cancer cell lines including estrogen-dependent (MCF7 and T-47D) and two normal ones (HLMEC and MCF 10A). The in vitro antiproliferative activity was measured using SRB assay. The results are presented in Figure 2 (and in the supplement in Table S1). The antiproliferative activity was measured separately for each of the experiments and given as the average IC50 (the concentration of tested compound which inhibits 50% of the cells population). Cisplatin (CP), a common anticancer drug, was used as a positive control.
(§2) The following established in vitro cell lines were applied: MCF7, T-47D, MDA-MB-231 (human breast cancer cell line), A2780 (human ovarian cancer cell line), A2780cis (human cisplatin-resistant ovarian cancer cell line), PC-3 and DU 145 (human prostate cancer cell lines), HT-29 (human colon cancer cell line), HLMEC (human lung microvascular endothelial cell line), and MCF 10A (human mammary epithelial cells line).
(§3) The cell lines: MDA-MB-231, HT-29, PC-3, DU 145, and MCF 10A were obtained from the American Type Culture Collection (Rockville, MD, USA), MCF7, T-47D, A2780, A2780cis from the European Collection Cell Cultures (Sigma-Aldrich, Chemie GmbH, Steinheim, Germany), while the HLMEC cell line was obtained by M. Paprocka from the institute. All cell lines are being maintained in the Institute of Immunology and Experimental Therapy (Wrocław, Poland). DU 145 and MCF7 cells were cultured in Eagle medium (supplemented with 4mM L-glutamine, 10% fetal bovine serum, 1 mM sodium pyruvate for DU 145 cells or 2 mM L-glutamine, 1% mem non-essential amino acid solution and 8 µg/mL insulin and 10% fetal bovine serum for MCF7). […] HT-29 and T-47D cell lines were cultured in RPMI 1640 + OPTI-MEM medium supplemented with 2 mM L-glutamine, 5% fetal bovine serum and 8 µg/mL of insulin (T-47D) or 1 mM sodium pyruvate (HT-29). MDA-MB-231, PC-3 and HLMEC cell lines were cultured in RPMI 1640 medium supplemented with 2 mM L-glutamine and 10% fetal bovine serum. Medium for MCF 10A cell line consisted of F-12 nutrient mixture supplemented with cholera toxin (0.05 µg/mL), insulin (10 µg/mL), hydrocortisone (0.5 µg/mL), 5% horse serum, and EGFH (20 ng/mL). All the culture media contained antibiotics: 100 units/mL penicillin (Polfa Tarchomin SA, Warsaw, Poland), and 100 µg/mL streptomycin (Sigma-Aldrich, Chemie GmbH, Steinheim, Germany). All cell lines were grown at 37 °C with 5% CO2 humidified atmosphere.
(§4) Twenty-four hours before the incubation with the tested compounds, the cells were seeded in 96-plates (Sarstedt, Germany) at a density of 1 × 10^4 cells per well (0.75 × 10^4 per well for MCF7 and 1 × 10^3 per well for HLMEC) in 100 µL of a culture medium.
(§5) Each agent at each concentration (from 0.1 to 100 µg/mL) was tested in a single experiment, which was repeated four to five times. […] Cisplatin was used as a reference drug.
(§6) The results were calculated as the IC50 (inhibitory concentration 50%)—the concentration of the tested compound which inhibits 50% of the cells population. IC50 values were calculated for each experiment separately and mean values ± SD are presented in the Table S1 in the Supplementary Materials. Each compound at each concentration was tested in triplicate in a single experiment, which was repeated four to five times.
(§7) The cells were fixed in situ by gently adding cold 50% trichloroacetic acid (50 µL per well). The plates were incubated at 4 °C for 1h and then washed five times with tap water. […]

[2] = breast tissue study of Bolca and co-workers; cited from earlier work
[3] = system: MCF 10A human mammary epithelial cells line; assay: SRB antiproliferative assay, MCF 10A (normal); format: cell-based; details: Homo sapiens, MCF-10A, 72 h, mean ± SD, read-out: Normal cell line, IC50, MCF-10A
Protocol: as §1, §2, §3, §4, §5, §6, §7

[4] = system: human CYP1B1; design: method as in PMID 10752639; details: cited from earlier work
[5] = system: DU 145 human prostate cancer cell line; assay: SRB antiproliferative assay, DU 145; format: cell-based
Protocol: as §1, §2, §3, §4, §5, §6, §7

[6] = system: A2780cis human cisplatin-resistant ovarian cancer cell line; assay: SRB antiproliferative assay, A2780cis; format: cell-based
Protocol: as §1, §2, §3, §4, §5, §6, §7

[7] = system: MCF7 human breast cancer cell line; assay: SRB antiproliferative assay, MCF7; format: cell-based
Protocol: as §1, §2, §3, §4, §5, §6, §7

[8] = system: HT-29 human colon cancer cell line; assay: SRB antiproliferative assay, HT-29; format: cell-based
[9] = system: PC-3 human prostate cancer cell line; assay: SRB antiproliferative assay, PC-3; format: cell-based
Protocol: as §1, §2, §3, §4, §5, §6, §7

[10] = system: human CYP1A1; design: method as in PMID 10752639; details: cited from earlier work
[11] = system: HLMEC human lung microvascular endothelial cell line; assay: SRB antiproliferative assay, HLMEC (normal); format: cell-based; details: Homo sapiens, Endothelial cell, 72 h, mean ± SD
[12] = system: MDA-MB-231 human breast cancer cell line; assay: SRB antiproliferative assay, MDA-MB-231; format: cell-based
Protocol: as §1, §2, §3, §4, §5, §6, §7

[13] = system: T-47D human breast cancer cell line; assay: SRB antiproliferative assay, T-47D; format: cell-based
Protocol: as §1, §2, §3, §4, §5, §6, §7

[14] = system: PC-3 cell line; design: method as in PMID 23434138; details: earlier study; cited from earlier work

Compound: COc1cc(O)c(CC=C(C)C)c(O)c1C(=O)/C=C/c1ccc(O)cc1 [XN, 3′-(3,3-dimethylallyl)-4,2′,4′-trihydroxy-6′-methoxychalcone]
- IC50 ([1]; Homo sapiens, A2780, SRB, 72 h, mean ± SD, read-out: Cancer cell line, IC50, A-2780): 2.06 ± 1.03 µM
- Selectivity index SIA, A-2780 ([1]; IC50 HLMEC / IC50 A-2780): 4.65
- Selectivity index SIB, A-2780 ([1]; IC50 MCF-10A / IC50 A-2780): 27.16
- SIA against A2780, times higher than the reference ([1]; ratio of SIA to SIA of cisplatin): 5-8 times
- Glucuronidation [2]: > 90%
- IC50 [3]: 56 ± 27.3 µM
- Inhibition of EROD activity of CYP1B1 [4]: almost completely inhibited
- IC50 ([5]; Homo sapiens, DU-145, SRB, 72 h, mean ± SD): 6.49 ± 2.14 µM
- Selectivity index SIA, Du-145 ([5]; IC50 HLMEC / IC50 Du-145): 1.47
- Selectivity index SIB, Du-145 ([5]; IC50 MCF-10A / IC50 Du-145): 8.62
- IC50 ([6]; Homo sapiens, A2780cis, SRB, 72 h, mean ± SD, read-out: Cancer cell line, IC50, A-2780cis): 8.21 ± 0.83 µM
- Selectivity index SIA, A-2780cis ([6]; IC50 HLMEC / IC50 A-2780cis): 1.17
- Selectivity index SIB, A-2780cis ([6]; IC50 MCF-10A / IC50 A-2780cis): 6.81
- IC50 ([7]; Homo sapiens, MCF7, 72 h, SRB, 72 h, mean ± SD): 10.8 ± 0.32 µM
- Selectivity index SIA, MCF-7 ([7]; IC50 HLMEC / IC50 MCF-7): 0.88
- Selectivity index SIB, MCF-7 ([7]; IC50 MCF-10A / IC50 MCF-7): 5.16
- IC50 ([8]; Homo sapiens, HT-29, SRB, 72 h, mean ± SD): 9.42 ± 0.25 µM
- Selectivity index SIA, HT-29 ([8]; IC50 HLMEC / IC50 HT-29): 1.02
- Selectivity index SIB, HT-29 ([8]; IC50 MCF-10A / IC50 HT-29): 5.94
- IC50 ([9]; Homo sapiens, SRB, 72 h, mean ± SD): 8.61 ± 1.11 µM
- Selectivity index SIA, PC-3 ([9]; IC50 HLMEC / IC50 PC-3): 1.11
- Selectivity index SIB, PC-3 ([9]; IC50 MCF-10A / IC50 PC-3): 6.50
- Inhibition of EROD activity of CYP1A1 [10]: almost completely inhibited
- IC50 [11]: 9.57 ± 4.23 µM
- IC50 ([12]; Homo sapiens, MDA-MB-231, SRB, 72 h, mean ± SD): 8.46 ± 3.19 µM
- Selectivity index SIA, MDA-MB-231 ([12]; IC50 HLMEC / IC50 MDA-MB-231): 1.13
- Selectivity index SIB, MDA-MB-231 ([12]; IC50 MCF-10A / IC50 MDA-MB-231): 6.61
- IC50 ([13]; Homo sapiens, T47D, SRB, 72 h, mean ± SD): 7.99 ± 2.77 µM
- Selectivity index SIA, T-47D ([13]; IC50 HLMEC / IC50 T-47D): 1.20
- Selectivity index SIB, T-47D ([13]; IC50 MCF-10A / IC50 T-47D): 7.00

Compound: COc1cc(O)c(CCC(C)(C)O)c(O)c1C(=O)/C=C/c1ccc(O)cc1 [xanthohumol H, 3′-[3′-hydroxy-3”methylbutyl]-4,2′,4′-trihydroxy-6′-methoxychalcone]
- Antiproliferative activity towards PC-3 cell line [14]: inactive
